One test concerns the target rat NR1/NR2B receptor (Rattus norvegicus (Rat), UniProt P35439+Q00960). In words: NR2B binding assay: inhibition of specific [3H]-Ifenprodil binding to the rat NR1/NR2B receptor. The settings on record: for inhibition at 1 µM: 1 μM test compound, read-out: % INH @ 1 μM; for inhibition at 10 µM: read-out: % INH @ 10 μM. On the procedure:
Biological Assays Inhibition of Specific Binding to the Rat NR1/NR2B Receptor
Male Wistar rats (180 to 200 g) were killed by suffocation in a CO2 chamber for two minutes. Whole brains without cerebellum were removed and dissected on ice, placed into closed vials and stored at −70° C.
Membrane fractions were prepared and tested using standard techniques. At the time of the assay, 1 g of the brains was placed into 25 ml of 50 mM Tris/10 mM EDTA buffer, pH 7.1, (25 vol. per g of original tissue) and homogenized for 30 sec at 20000 rpm with an Ultraturrax T25 (Jahnke & Kunkel, IKA-Labortechnik, Staufen, Germany).
The supernatant was discarded and the pellet was homogenized on ice for 30 sec at 20000 rpm with an Ultraturrax and again centrifuged at 48000 g for 30 minutes at 4° C. The resultant pellet was resuspended in 25 ml of 50 mM Tris/10 mM EDTA buffer, homogenized for 30 sec with an Ultraturrax, aliquoted, frozen at −70° C. and stored until use.
After thawing on the day of the assay, a 5 ml membrane aliquot was centrifuged at 48000 g for 30 min at 4° C. The pellet was resuspended in 5 ml of 5 mM Tris/1 mM EDTA buffer, pH 7.4, homogenized for 30 sec at 20000 rpm with an Ultraturrax and centrifuged at 48000 g for 30 min at 4° C. This was repeated twice. The final pellet was homogenized in 5 ml of 5 mM Tris/1 mM EDTA buffer at 4° C. with an Ultraturrax and used for the Ifenprodil-binding assay as described in the following.
Nonspecific binding was estimated in the presence of […] CP101.606. The samples were incubated for 60 min. at 4° C.
The incubation was terminated by filtration of the membrane preparations using Filtermat B (Pharmacia, Uppsala Sweden) and a Micro Cell Harvester (Skatron, Lier, Norway). The Filtermat B had been presoaked with 1% polyethylene imine and carefully washed with 50 mM Tris/HCl-buffer pH 7.7 after the filtration to separate free and bound radioactivity.
The optimal amount of membrane preparation in the assay was determined and optimized for each membrane preparation separately before the test.
For pipetting of the incubation mixture the robot Biomek2000 (Fa. Beckman) was used.
For determination of IC50 values the Hill-plot, 2-parameter-model was used.

A further test concerns the target hERG receptor (Homo sapiens (Human), UniProt Q12809). In words: HERGBD: inhibition of specific [3H]-Dofetilide binding to the hERG receptor. On the procedure: Inhibition of Specific Binding to the hERG—Receptor (HERGBD)
A HEK cell line with stable transfected human ERG receptor was used for the assay. The cells were grown adherently and maintained in DULBECCOS' MEM medium with 10% FBS, 1% non-essential amino acids, 1% Penicillin/Streptomycin and 400 μg/ml G418 (Calbiochem).
For binding assays and membrane preparations the cell culture medium was removed, cells were washed with PBS. Crude membranes for radioligand binding experiments were prepared by scraping the cells off the dishes in ice cold 20 mM HEPES/0.1 mM KCl/pH 7.2. The cell suspension was homogenized on ice (Ultra turrax, 3×20 sec.) and the homogenate was spun for 10 min (1° C., 1000 g, OPTIMA, SW28, 2800 U/min). The supernatant was than centrifuged for 40 min at 100000 g (1° C., OPTIMA, SW28, 23000 U/min). The membrane pellet was re-suspended in 20 mM HEPES/0.1 mM KCl pH 7.2, frozen and stored at −80° C.
After thawing on the day of the assay, the membrane suspension was diluted further with 20 mM HEPES/0.1 mM KCl/pH 7.2.
The incubation mixture of 200 μl contained 1.5 nmol/l 3H-Dofetilide, optimized amount of membrane preparation, 20 mM HEPES/0.1 mM KCl/(pH 7.2) and inhibitor in 1% DMSO. Nonspecific binding was estimated in the presence of […] Dofetilide. The samples were incubated for 90 min. at RT.
Binding was terminated by filtration of the incubated membrane preparations using Filtermat B (Pharmacia, Uppsala Sweden) and a Micro Cell Harvester (Skatron, Lier, Norway). The Filtermat B had been presoaked with 1% polyethylen imine and carefully washed with 0.05 M Tris/HCl-buffer pH=7.7 after the filtration to separate free and bound radioactivity. The filters were counted in a scintillation counter (Betaplate 1205, Berthold, Wildbad, Germany) in order to determine the specific binding of [^3H]-Dofetilide.
The optimal amount of membrane preparation in the assay was determined and optimized for each membrane preparation separately in front of using the membranes in compound testing.
For pipetting of the incubation mixture we routinely use the robot Biomek2000 (Fa. Beckman).

Where [1] appears, read: [3H]-Ifenprodil binding, rat brain membranes.
The mark [2] stands for this setting: [3H]-Dofetilide binding, membranes of HEK cells with human ERG receptor, read-out: IC50.
Setting [3] is: 10 μM test compound, [3H]-Ifenprodil binding, rat brain membranes.

Structures can show the parent of a compound that is named as a salt. Where two headings read alike, the source gives them in different places.

Sequence of rat NR1/NR2B receptor (Q00960 27-1482, other chains not shown): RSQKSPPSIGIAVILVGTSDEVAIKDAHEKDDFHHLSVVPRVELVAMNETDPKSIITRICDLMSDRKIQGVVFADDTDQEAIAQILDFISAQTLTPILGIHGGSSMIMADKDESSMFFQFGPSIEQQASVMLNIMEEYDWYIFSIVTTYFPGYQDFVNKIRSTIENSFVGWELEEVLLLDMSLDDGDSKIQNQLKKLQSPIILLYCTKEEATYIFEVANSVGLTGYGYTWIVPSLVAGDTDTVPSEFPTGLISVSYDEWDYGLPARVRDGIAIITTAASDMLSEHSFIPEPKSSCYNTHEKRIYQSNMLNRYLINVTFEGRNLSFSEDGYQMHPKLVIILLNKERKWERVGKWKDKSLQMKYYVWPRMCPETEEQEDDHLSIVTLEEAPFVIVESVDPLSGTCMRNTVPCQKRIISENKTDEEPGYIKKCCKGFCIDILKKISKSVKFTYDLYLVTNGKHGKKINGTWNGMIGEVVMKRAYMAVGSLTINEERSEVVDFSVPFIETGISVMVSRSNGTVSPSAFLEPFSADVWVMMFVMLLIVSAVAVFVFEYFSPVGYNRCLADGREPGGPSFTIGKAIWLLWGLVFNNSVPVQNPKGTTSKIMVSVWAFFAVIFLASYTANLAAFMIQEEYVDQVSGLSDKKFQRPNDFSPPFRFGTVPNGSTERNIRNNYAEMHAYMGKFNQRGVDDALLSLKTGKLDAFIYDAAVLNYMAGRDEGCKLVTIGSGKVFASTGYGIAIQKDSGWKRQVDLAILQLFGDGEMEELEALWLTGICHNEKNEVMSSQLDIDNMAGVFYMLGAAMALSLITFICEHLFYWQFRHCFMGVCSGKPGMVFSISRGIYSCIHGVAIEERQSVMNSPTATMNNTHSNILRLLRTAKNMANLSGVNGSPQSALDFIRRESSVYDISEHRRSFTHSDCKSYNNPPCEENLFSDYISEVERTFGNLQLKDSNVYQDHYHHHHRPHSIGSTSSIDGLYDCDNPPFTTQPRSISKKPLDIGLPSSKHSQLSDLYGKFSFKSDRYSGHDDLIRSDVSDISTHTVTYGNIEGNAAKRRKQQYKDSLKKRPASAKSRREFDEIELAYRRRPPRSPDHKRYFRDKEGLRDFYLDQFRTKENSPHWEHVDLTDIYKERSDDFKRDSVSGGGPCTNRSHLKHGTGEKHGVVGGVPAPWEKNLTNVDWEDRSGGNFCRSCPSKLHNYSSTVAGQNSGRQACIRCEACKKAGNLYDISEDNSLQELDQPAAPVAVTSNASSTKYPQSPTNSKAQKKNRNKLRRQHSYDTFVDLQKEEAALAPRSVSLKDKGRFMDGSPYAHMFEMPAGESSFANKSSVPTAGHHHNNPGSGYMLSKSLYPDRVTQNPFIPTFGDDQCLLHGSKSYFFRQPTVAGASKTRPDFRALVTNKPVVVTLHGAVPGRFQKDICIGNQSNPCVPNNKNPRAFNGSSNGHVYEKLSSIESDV
Sequence of hERG receptor (Q12809 whole entry): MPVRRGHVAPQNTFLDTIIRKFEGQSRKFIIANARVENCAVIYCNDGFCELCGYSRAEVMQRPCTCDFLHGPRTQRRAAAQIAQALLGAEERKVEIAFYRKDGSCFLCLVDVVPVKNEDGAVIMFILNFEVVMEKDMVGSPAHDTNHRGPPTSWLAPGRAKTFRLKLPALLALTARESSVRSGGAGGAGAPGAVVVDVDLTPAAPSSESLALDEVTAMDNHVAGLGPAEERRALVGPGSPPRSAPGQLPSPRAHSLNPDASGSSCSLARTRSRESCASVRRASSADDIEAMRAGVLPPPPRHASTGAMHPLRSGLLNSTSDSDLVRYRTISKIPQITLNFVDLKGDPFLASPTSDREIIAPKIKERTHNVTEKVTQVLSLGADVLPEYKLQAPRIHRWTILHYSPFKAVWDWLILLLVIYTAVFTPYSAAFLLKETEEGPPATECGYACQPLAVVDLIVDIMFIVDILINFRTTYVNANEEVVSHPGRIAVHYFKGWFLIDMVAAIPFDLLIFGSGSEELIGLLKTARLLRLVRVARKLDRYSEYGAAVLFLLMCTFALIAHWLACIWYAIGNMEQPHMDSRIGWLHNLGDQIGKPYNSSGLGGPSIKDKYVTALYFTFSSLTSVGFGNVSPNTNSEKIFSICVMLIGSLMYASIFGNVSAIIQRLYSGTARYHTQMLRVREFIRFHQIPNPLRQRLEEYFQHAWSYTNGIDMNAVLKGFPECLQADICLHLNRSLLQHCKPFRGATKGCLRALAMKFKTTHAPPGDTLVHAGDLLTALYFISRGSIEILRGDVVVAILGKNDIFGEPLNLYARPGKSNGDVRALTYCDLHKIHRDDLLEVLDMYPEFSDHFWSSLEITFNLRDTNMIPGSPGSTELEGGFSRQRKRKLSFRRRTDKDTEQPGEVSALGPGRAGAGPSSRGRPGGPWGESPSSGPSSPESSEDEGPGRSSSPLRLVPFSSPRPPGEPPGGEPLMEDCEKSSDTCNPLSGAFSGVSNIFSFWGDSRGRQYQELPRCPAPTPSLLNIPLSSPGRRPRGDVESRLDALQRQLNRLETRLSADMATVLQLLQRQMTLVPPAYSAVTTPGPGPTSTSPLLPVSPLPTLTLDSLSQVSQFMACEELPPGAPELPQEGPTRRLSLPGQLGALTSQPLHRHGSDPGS

On to `Cn1ccc(Cn2cc(-c3cccc(OC(F)(F)F)c3)cn2)n1` [Example 23, 1-Methyl-3-[[4-[3-(trifluoromethoxy)phenyl]pyrazol-1-yl]methyl]pyrazole Succinate], for which the IC50 is 1.59 µM on rat NR1/NR2B receptor (setting [1]) and 9.24 µM at hERG receptor.
Take `c1cc(-c2cnn(Cc3cc[nH]n3)c2)cc(C2CC2)c1` [Example 69, 4-(3-cyclopropylphenyl)-1-(1H-pyrazol-3-ylmethyl)pyrazole Succinate]: the values for the IC50 at rat NR1/NR2B receptor (setting [1]) and on hERG receptor were 0.831 µM and above 100 µM, respectively.
Consider `FC(F)Oc1cccc(-c2cnn(Cc3cc[nH]n3)c2)c1` [Example 94, 3-[[4-(3-(difluoromethoxy)-phenyl)pyrazol-1-yl]methyl]-1H-pyrazole Maleate], for which the IC50 is 0.279 µM at rat NR1/NR2B receptor (setting [1]) and 120 µM at hERG receptor (setting [2]).
Take `Clc1ccc(-c2cnn(Cc3cc[nH]n3)c2)cc1` [Example 77, 4-(4-Chlorophenyl)-1-(1H-pyrazol-3-ylmethyl)pyrazole]: the IC50 on rat NR1/NR2B receptor (setting [1]) is 1.04 µM; on hERG receptor it was 16.9 µM.
`Cn1nccc1Cn1cc(-c2ccccc2)cn1` [Example 87, 1-Methyl-5-[(4-phenylpyrazol-1-yl)methyl]pyrazole; succinic acid]: the inhibition at 1 µM at rat NR1/NR2B receptor (setting [1]) is -3.3%. For the same compound, on rat NR1/NR2B receptor (setting [3]), the inhibition at 10 µM amounted to 28.8%. The IC50 at hERG receptor (setting [2]) was above 100 µM.
Regarding `CCn1ccc(Cn2cc(-c3ccc(F)c(C(F)F)c3)cn2)n1` [Example 38, 3-[[4-[3-(Difluoromethyl)-4-fluoro-phenyl]pyrazol-1-yl]methyl]-1-ethyl-pyrazole], the IC50 was 0.443 µM on rat NR1/NR2B receptor (setting [1]) and above 100 µM on hERG receptor.
On rat NR1/NR2B receptor (setting [1]), `Cc1ccc(-c2cnn(Cc3ccn(C)n3)c2)cc1F` [Example 53, 3-[[4-(3-fluoro-4-methyl-phenyl)pyrazol-1-yl]methyl]-1-methyl-pyrazole Succinate] yielded an IC50 of 3.84 µM.
Take `Cn1nccc1Cn1cc(-c2ccc(Cl)c(OC(F)F)c2)cn1` [Example 5, 4-[4-Chloro-3-(difluoromethoxy)phenyl]-1-[(2-methylpyrazol-3-yl)methyl]pyrazole]: the IC50 turned out to be 0.148 µM at rat NR1/NR2B receptor (setting [1]) and 64.3 µM on hERG receptor.
Taken in the same sequence, the figures for `Cn1cc(Cn2cc(-c3ccc(F)c(OC(F)F)c3)cn2)cn1` [Example 19, 4-[3-(difluoromethoxy)-4-fluoro-phenyl]-1-[(1-methylpyrazol-4-yl)methyl]pyrazole] were 0.202 µM and above 100 µM.
`Cc1cc(Cn2cc(-c3ccccn3)cn2)n(C)n1` [Example 105, 2-(1-((1,3-dimethyl-1H-pyrazol-5-yl)methyl)-1H-pyrazol-4-yl)pyridine Succinate]: at rat NR1/NR2B receptor (setting [1]), the inhibition at 1 µM is -1.3%. The inhibition at 10 µM on rat NR1/NR2B receptor (setting [3]) is 4.4%.
Take `Cn1ccc(Cn2cc(-c3ccc(F)c(Cl)c3)cn2)n1` [Example 61, 3-[[4-(3-chloro-4-fluoro-phenyl)pyrazol-1-yl]methyl]-1-methyl-pyrazole Succinate]: the results for the IC50 on rat NR1/NR2B receptor (setting [1]) and at hERG receptor were 1.38 µM and 24.7 µM, respectively.
`COc1cc(F)ccc1-c1cnn(Cc2ccn(C)n2)c1` [Example 67, 3-[[4-(4-fluoro-2-methoxy-phenyl)pyrazol-1-yl]methyl]-1-methyl-pyrazole Succinate]: the inhibition at 1 µM on rat NR1/NR2B receptor (setting [1]) came out at 15.1%. Moreover, the inhibition at 10 µM at rat NR1/NR2B receptor (setting [3]) was found to be 16%. Further, on hERG receptor (setting [2]), the IC50 was determined as 63.3 µM.
`Cc1n[nH]c(C)c1Cn1cc(-c2ccc(F)c(C(F)F)c2)cn1` [Example 89, 4-[[4-(3-difluoromethyl-4-fluoro-phenyl)pyrazol-1-yl]methyl]-3,5-dimethyl-1H-pyrazole]: the IC50 on rat NR1/NR2B receptor (setting [1]) came to 0.736 µM; at hERG receptor, 88.2 µM.
As for `Cc1cc(Cn2cc(-c3ccc(F)c(C)c3)cn2)n(C)n1` [Example 54, 5-[[4-(4-fluoro-3-methyl-phenyl)pyrazol-1-yl]methyl]-1,3-dimethyl-pyrazole Succinate], on hERG receptor (setting [2]), the IC50 was above 100 µM.
In the case of `Cc1cc(Cn2cc(-c3ccc(Cl)c(OC(F)F)c3)cn2)n(C)n1` [Example 3, 5-[[4-[4-Chloro-3-(difluoromethoxy)phenyl]pyrazol-1-yl]methyl]-1,3-dimethyl-pyrazole], the IC50 at rat NR1/NR2B receptor (setting [1]) is 0.146 µM; at hERG receptor (setting [2]), 23.3 µM.
On to `Cc1cc(Cn2cc(-c3ccc(F)c(C(F)F)c3)cn2)n(C)n1` [Example 32, 5-[[4-[3-(Difluoromethyl)-4-fluoro-phenyl]pyrazol-1-yl]methyl]-1,3-dimethyl-pyrazole], for which the IC50 was 0.323 µM on rat NR1/NR2B receptor (setting [1]) and 38.6 µM on hERG receptor.
Taken in the same sequence, the figures for `Cn1cc(Cn2cc(-c3ccc(F)c(C(C)(F)F)c3)cn2)cn1` [Example 45, 4-[3-(1,1-difluoroethyl)-4-fluoro-phenyl]-1-[(1-methylpyrazol-4-yl)methyl]pyrazole Succinate] were 0.261 µM and 67.8 µM.
For the compound `Cn1ccc(Cn2cc(-c3ccccn3)cn2)n1` [Example 104, 2-(1-((1-methyl-1H-pyrazol-3-yl)methyl)-1H-pyrazol-4-yl)pyridine Succinate], the inhibition at 1 µM on rat NR1/NR2B receptor (setting [1]) stood at 20.9%. On rat NR1/NR2B receptor, the inhibition at 10 µM was -0.6%. For the same compound, the IC50 on hERG receptor (setting [2]) was above 100 µM.
For the compound `CCC(CC)n1ccc(Cn2cc(-c3ccc(Cl)c(OC(F)F)c3)cn2)n1` [Example 11, 3-[[4-[4-Chloro-3-(difluoromethoxy)phenyl]pyrazol-1-yl]methyl]-1-(1-ethylpropyl)pyrazole], on rat NR1/NR2B receptor (setting [1]), the inhibition at 1 µM worked out at 2.7%. Besides, on hERG receptor (setting [2]), the IC50 came out at 12.7 µM.
As to `Cc1cc(Cn2cc(-c3ccc(Cl)c(Cl)c3)cn2)n(C)n1` [Example 64, 5-[[4-(3,4-dichlorophenyl)pyrazol-1-yl]methyl]-1,3-dimethyl-pyrazole], the values for the IC50 on rat NR1/NR2B receptor (setting [1]) and at hERG receptor were 1.1 µM and 14.4 µM, respectively.
For the compound `Cn1ccc(Cn2cc(-c3cc(F)cc(F)c3)cn2)n1` [Example 84, 3-[[4-(3,5-difluorophenyl)pyrazol-1-yl]methyl]-1-methyl-pyrazole], the inhibition at 1 µM at rat NR1/NR2B receptor (setting [1]) was 14.6%. Further, the inhibition at 10 µM on rat NR1/NR2B receptor (setting [3]) was 45.7%.
As for `Cn1ccc(Cn2cc(-c3ccccc3)cn2)n1` [Example 85, 1-methyl-3-[(4-phenylpyrazol-1-yl)methyl]pyrazole], the inhibition at 1 µM on rat NR1/NR2B receptor (setting [1]) was 22.5%. In addition, at rat NR1/NR2B receptor (setting [3]), the inhibition at 10 µM amounted to 25.3%.
On rat NR1/NR2B receptor (setting [1]), `Cc1cc(Cn2cc(-c3cc(F)cc(F)c3)cn2)n(C)n1` [Example 83, 5-[[4-(3,5-difluorophenyl)pyrazol-1-yl]methyl]-1,3-dimethyl-pyrazole] yielded an IC50 of 6.02 µM.
In the case of `Cn1ccc(Cn2cc(-c3ccc(Br)cc3)cn2)n1` [Example 79, 3-[[4-(4-bromophenyl)pyrazol-1-yl]methyl]-1-methyl-pyrazole], the IC50 at rat NR1/NR2B receptor (setting [1]) turned out to be 4.72 µM.
Consider `Cc1cc(Cn2cc(-c3ccccc3)cn2)n(C)n1` [Example 86, 1,3-Dimethyl-5-[(4-phenylpyrazol-1-yl)methyl]pyrazole], for which, on rat NR1/NR2B receptor (setting [1]), the inhibition at 1 µM turned out to be 3.8%. Besides, on rat NR1/NR2B receptor (setting [3]), the inhibition at 10 µM was determined as 10.9%.
Compound `Cn1ccc(Cn2cc(-c3cccc(Br)c3)cn2)n1` [Example 82, 3-[[4-(3-bromophenyl)pyrazol-1-yl]methyl]-1-methyl-pyrazole Succinate] returned an IC50 on rat NR1/NR2B receptor (setting [1]) of 2.62 µM.
